Experimental data published in patent US8106080B2, “Compositions and methods for enhancing nitric oxide delivery” (priority 2006, dated 2012).
Like-named read-outs stand apart in the source and are kept apart here. Marks after values point to notes of the source that are not given here.

How the values were obtained:
[1] = tested on: normal C57Black/6 mice
[2] = tested on: EDL muscles from old (12-month-old) normal mice; experiment: DNA synthesis in whole-muscle EDL culture from 12-month-old mice; type: cell-based, mouse; settings: MyoNovin higher dose of 2, L-NAME both doses (very high), FIG. 19
Procedure: […] Each muscle was aligned radially in one well of a 6-well Flex II culture plate (Flexcell International, N.C., USA), and the tendons were pinned so the muscle was at resting length. The muscles were incubated in growth medium ([…], DMEM, containing 15% v/v horse serum (HyClone Laboratories Inc.) and 2% v/v chick embryo extract (ICN Biomedicals) at 37° C. in 5% CO2). Muscles in the wells were treated with or without an NO donor. [^3H]-Thymidine was added to the medium at the beginning of treatment, and cultures were maintained for 24 hours to allow incorporation of the isotope into new DNA. At the end of 24 hours, muscles were removed from wells, tendons were trimmed away, and the muscles were frozen at −20° C. for future analysis.
(§1) DNA was isolated from the tissues. DNA synthesis was assayed by scintillation counting in Ready Safe scintillation cocktail (Beckman), and the concentration of DNA in each sample was assayed using a fluorescence assay (calibrated against a standard curve). The data were calculated as DNA synthesis per microgram of DNA in each sample.
Data from an experiment on EDL muscles in culture, isolated from old (12-month-old) normal […] mice were conducted using the method described above for methocarbomol and ISDN.
In this experiment, muscles were treated with MyoNovin (2 doses) or the NOS inhibitor, L-NAME (2 doses).

[3] = tested on: EDL muscles from normal C57Black/6 mice; experiment: DNA synthesis ([3H]-thymidine) in whole-muscle EDL culture, normal mice; type: cell-based; settings: NO donor alone; whole mouse EDL-muscle cultures; FIG. 2
Procedure: The proposed model of satellite cell activation as a function of NO is supported by a study of the effect of two known NO donor compounds-ISDN and DPTA-on whole mouse EDL-muscle cultures (FIG. 2), which studies were performed using in vitro methods described below. Results are reported in dpm (“disintegrations per minute”) per amount of DNA (here μg). […] In all cases, each sample was assayed in duplicate for counts, and in triplicate for DNA content (micrograms), the latter according to a standard curve of 5 or more standard concentrations that was established with a regression line having r^2 in the linear regression analysis greater than 0.97 at each assay.
Extensor digitorum longus (EDL) muscles were dissected cleanly and carefully from normal C57Black/6 mice (8 weeks old) without stretching or trauma that could easily activate satellite cells. Each muscle was aligned radially in one well of a 6-well Flex II culture plate (Flexcell International, N.C., USA), and the tendons were pinned so the muscle was at resting length. […]
as §1

[4] = tested on: back muscle tissue homogenate; experiment: EPR assay of NO release, back muscle homogenate; type: biochemical, mouse
Procedure: (§2) In the experiment liver and back muscle tissue taken from C57Black/6 mice were homogenized in ice-cold sucrose buffer. A small amount of MyoNovin was dissolved in dimethylsulfoxide and added to the tissue homogenates. An NO spin-trap molecule N-Methyl-D-glucamine dithiocarbamate (MGD) was added to the homogenate-MyoNovin mixture as a stable iron complex [10 μl of 50 mM MGD in saline; (containing MGD at 50 mM and Fe^2+ at 10 mM)] in order to trap any NO released from the tissue homogenate. The entire homogenate mixture plus NO spin-trap solution was then incubated for 1 hour at 37° C. After incubation, a sample of homogenate (16 μl) was loaded into a quartz capillary tube for determination of the EPR spectrum. EPR spectra were then obtained using a Bruker EMXEPR spectrometer (Bruker, Co., Billerica, Mass.) at room temperature (25° C.). The instrument settings were: 9.25 GHz microwave frequency; 100 kHz modulation frequency; 20 mW microwave power, 4 G modulation amplitude, 40 ms time constant, 42 s scan time, and 100 Gauss scan range, and 3410 G center field.
(§3) FIG. 20 is a compilation of the spectra obtained. Curve A represents a blank control sample (the homogenate and NO spin-trap for the EPR assay, without the addition of MyoNovin). Curve B is an NO standard (homogenate and NO spin-trap for the EPR assay, bubbled with NO gas). […]

[5] = tested on: mdx dystrophic mice; experiment: DNA synthesis in back muscle after topical application, mdx mice; type: in vivo, mouse; settings: transdermal, FIG. 18
Description: Ointments were applied according to the following procedure. • 1. Animals were anesthetized with isoflurane and the mid-dorsal skin (on the back) was shaved, washed with soap and water, and air dried. • 2. The ointment was applied to the sterile pad on an adhesive bandage. Control bandages were coated with the ointment base only. After topical application in which the bandages were applied to the shaved back region, bandages were wrapped with medical adhesive. The animals had the Elizabethan collar fitted while under anesthesia, to prevent their later chewing at the adhesive tape. Eyes were irrigated regularly, as animals were unable to groom well while wearing the cone. • 3. Animals were treated for a total of 24 hours. There were no apparent effects of treatment on behaviour. • 4. Two hours before euthanasia, the mice were injected with 2 μCi per gram body weight of tritiated-thymidine (intra peritoneal) to label DNA synthesis. • 5. At 24 hours from the start of ointment application, animals were euthanized using cervical dislocation under anesthesia provided by pentobarbital injection. […] DNA synthesis was assayed by scintillation counting in Ready Safe scintillation cocktail (Beckman), and the concentration of DNA in each sample was assayed using a fluorescence assay (calibrated against a standard curve). The data were calculated as DNA synthesis per microgram of DNA in each sample. […]

[6] = tested on: liver tissue homogenate; experiment: EPR assay of NO release, liver homogenate; type: biochemical, mouse; settings: MGD spin-trap, 1 hour at 37° C., FIG. 20
Procedure: as §2, §3

[7] = 0.25% carisoprodol, 1% DETA, topical, FIG. 8
[8] = 1% methocarbamol, 0.2% ISDN ointment, topical 24 h, FIG. 7
[9] = back muscle, topical ointment on back, 24 h, DNA synthesis per microgram of DNA
[10] = gut (positive control tissue), topical ointment on back, 24 h, per microgram of DNA
[11] = heart (negative control tissue), topical ointment on back, 24 h, per microgram of DNA
[12] = quadriceps, topical ointment on back, 24 h, DNA synthesis per microgram of DNA

NCCN(CCN)/[N+]([O-])=N/O [DETA, diethylenetriamine-NONOate]
DNA synthesis in back muscle (in words) [1, 7]: induce increased DNA synthesis
DNA synthesis in quadriceps (in words) [1, 7]: induce increased DNA synthesis

COC(=O)[C@@H](N)CCCNC(=N)N[N+](=O)[O-] [L-NAME, L-nitro-arginine methyl ester]
DNA synthesis in EDL muscles in culture [2]: decreased DNA synthesis

CCCC(C)(COC(N)=O)COC(=O)NC(C)C (stereo not shown) [carisoprodol]
DNA synthesis in back muscle (in words) [1, 7]: induce increased DNA synthesis
DNA synthesis in quadriceps (in words) [1, 7]: induce increased DNA synthesis

NCCCN(CCCN)/[N+]([O-])=N/O [DPTA, dipropylenetriamine-NONOate]
DNA synthesis (3H-thymidine incorporation) compared to a control muscle [3]: stimulate an increase in DNA synthesis

COc1ccccc1OCC(CO[N+](=O)[O-])O[N+](=O)[O-] (stereo not shown) [MyoNovin, 1,2-di-O-nitro-3(o-methoxyphenoxy)-propanediol]
NO release (EPR) ([4]; back muscle homogenate, MGD spin-trap, 1 hour at 37° C., FIG. 20): strong release of NO
time-course of NO release ([4]; back muscle homogenates, FIG. 21): more than two hours
side effects to animal behaviour, appearance or weight ([1]; transdermal MyoNovin, 24 h, normal mice): no apparent side effects
increase in muscle cell proliferation (DNA synthesis) ([1]; transdermal, over a 24-hour period, normal mice, FIG. 17): 37-39%
DNA synthesis in back muscle compared to the control [5]: decreased
DNA synthesis in EDL muscles in culture [2]: increased DNA synthesis
NO release (EPR) [6]: strong release of NO

COc1ccccc1OCC(O)COC(N)=O (stereo not shown) [MC, methocarbamol]
DNA synthesis in back muscle (in words) [1, 8]: increase in DNA synthesis
DNA synthesis, Back Muscle, Mean ([1]; back muscle, mean of experiments, outliers (*) excluded, MC/ISDN mean covers samples (a) and (b)): 427.5
DNA synthesis, Back Muscle, Experiment 1 [1, 9]: 430.5
DNA synthesis, Back Muscle, Experiment 2 [1, 9]: 734*
DNA synthesis, Back Muscle, Experiment 3 [1, 9]: 422.7
DNA synthesis, Back Muscle, Experiment 4 [1, 9]: 429.43
DNA synthesis, Gut, Experiment 2 [1, 10]: 123
DNA synthesis, Gut, Experiment 3 [1, 10]: 239.2
DNA synthesis, Gut, Experiment 4 [1, 10]: 225.9
DNA synthesis, Gut, Mean ([1]; gut, mean of experiments, MC/ISDN mean covers samples (a) and (b)): 196.0
DNA synthesis, Heart, Experiment 2 [1, 11]: 186
DNA synthesis, Heart, Experiment 3 [1, 11]: 221.3
DNA synthesis, Heart, Experiment 4 [1, 11]: 240.76
DNA synthesis, Heart, Mean ([1]; heart, mean of experiments, MC/ISDN mean covers samples (a) and (b)): 216.0
DNA synthesis, Quadriceps, Mean ([1]; quadriceps, mean of experiments, MC/ISDN mean covers samples (a) and (b)): 456.3
DNA synthesis, Quadriceps, Experiment 1 [1, 12]: 507
DNA synthesis, Quadriceps, Experiment 2 [1, 12]: 573
DNA synthesis, Quadriceps, Experiment 3 [1, 12]: 404.1
DNA synthesis, Quadriceps, Experiment 4 [1, 12]: 340.9

O=[N+]([O-])O[C@H]1CO[C@H]2[C@@H]1OC[C@H]2O[N+](=O)[O-] [ISDN, isosorbide dinitrate]
DNA synthesis in back muscle (in words) [1, 8]: increase in DNA synthesis
DNA synthesis (3H-thymidine incorporation) compared to a control muscle [3]: stimulate an increase in DNA synthesis
